Source: patent US10738028B2, “Spiro three-membered ring, spiro five-membered ring peptide deformylase inhibitor and use thereof in antibacteria and anti-tumor” (priority 2016, dated 2020)

What was measured:
Format in all cases: cell-based
[1] = system: BEL-7402 liver cancer cell line; experiment: CCK-8 proliferation inhibition; settings: concentration of 30 μM, 72 hours, 30 µM
Outline: (§1)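 Plating at 2000 cells/well, then incubation overnight at 37° C. Next, a range of compound concentrations for 72 hours (control 1‰ DMSO). Finally, medium decanted and CCK-8 diluted 1:10 added.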

[2] = system: MGC-803 gastric cancer cell line; experiment: CCK-8 proliferation inhibition; settings: concentration of 30 μM; for Inhibition of proliferation, Gastric cancer MGC-803: 72 hours, 30 µM
Outline: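 Using media specific to each line (1640 for MGC-803 and Jurkat, F12 for PC3, DMEM high glucose for MCF-7, each with 10% newborn bovine serum), cells at 2000/well were treated for 72 h with serially formulated compounds, then assessed with CCK-8 diluted 1:10.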

[3] = system: A549 lung cancer cell line; experiment: CCK-8 proliferation inhibition; settings: concentration of 30 μM; for inhibition at 30 µM: Homo sapiens, A549, 72 h; for Inhibition of proliferation, Lung cancer A549: 72 hours, 30 µM
Outline: as §1

[4] = system: HCT-116 colorectal cancer cell line; experiment: CCK-8 proliferation inhibition; settings: concentration of 30 μM; 72 hours; CCK-8; 30 µM
Outline: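 Proliferation over 72 hours of compound treatment was measured with CCK-8 against a 1‰ DMSO control.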

[5] = system: methicillin-resistant Staphylococcus epidermidis (MRSE); experiment: MIC, two-fold agar dilution (CLSI), clinical isolates; settings: for Anti-bacterial activity (MIC), strain MRSE 15-1: clinical isolate MRSE 15-1; for Anti-bacterial activity (MIC), strain MRSE 15-2: clinical isolate MRSE 15-2; for Anti-bacterial activity (MIC), strain MRSE 15-3: clinical isolate MRSE 15-3; for Anti-bacterial activity (MIC), strain MRSE 15-7: clinical isolate MRSE 15-7
Outline: (§2)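 CLSI two-fold agar dilution; MIC of test samples read per tested strain.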

[6] = system: Enterococcus faecium (EFM); experiment: as above
Outline: as §2

[7] = system: Enterococcus faecalis (EFA); experiment: as above
Outline: as §2

[8] = system: methicillin-sensitive Staphylococcus aureus (MSSA); experiment: as above; settings: for Anti-bacterial activity (MIC), strain MSSA 15-3: clinical isolate MSSA 15-3; for Anti-bacterial activity (MIC), strain MSSA 15-4: clinical isolate MSSA 15-4; for Anti-bacterial activity (MIC), strain MSSA 15-5: clinical isolate MSSA 15-5; for Anti-bacterial activity (MIC), strain MSSA 15-6: clinical isolate MSSA 15-6
Outline: as §2

[9] = system: Streptococcus pneoumoniae (SPN); experiment: as above
Outline: as §2

[10] = system: Escherichia coli (including ESBLs, non-ESBLs); experiment: as above; settings: for Anti-bacterial activity (MIC), strain ECO+ 15-1: clinical isolate ECO+ 15-1; for Anti-bacterial activity (MIC), strain ECO+ 15-2: clinical isolate ECO+ 15-2; for Anti-bacterial activity (MIC), strain ECO+ 15-3: clinical isolate ECO+ 15-3; for Anti-bacterial activity (MIC), strain ECO+ 15-4: clinical isolate ECO+ 15-4; for Anti-bacterial activity (MIC), strain ECO− 15-1: clinical isolate ECO− 15-1; for Anti-bacterial activity (MIC), strain ECO− 15-2: clinical isolate ECO− 15-2; for Anti-bacterial activity (MIC), strain ECO− 15-3: clinical isolate ECO− 15-3; for Anti-bacterial activity (MIC), strain ECO− 15-4: clinical isolate ECO− 15-4
Outline: as §2

[11] = system: methicillin-resistant Staphylococcus aureus (MRSA); experiment: as above; settings: for Anti-bacterial activity (MIC), strain MRSA 15-1: clinical isolate MRSA 15-1; for Anti-bacterial activity (MIC), strain MRSA 15-2: clinical isolate MRSA 15-2; for Anti-bacterial activity (MIC), strain MRSA 15-3: clinical isolate MRSA 15-3; for Anti-bacterial activity (MIC), strain MRSA 15-4: clinical isolate MRSA 15-4
Outline: as §2

[12] = system: Moraxella catarrhalis (BCA); experiment: as above
Outline: as §2

[13] = system: methicillin-sensitive Staphylococcus epidermidis (MSSE); experiment: as above; settings: for Anti-bacterial activity (MIC), strain MSSE 15-4: clinical isolate MSSE 15-4; for Anti-bacterial activity (MIC), strain MSSE 15-5: clinical isolate MSSE 15-5; for Anti-bacterial activity (MIC), strain MSSE 15-6: clinical isolate MSSE 15-6
Outline: as §2

Cc1cnc(NC(=O)[C@@H]2CC3(CC3)CN2C(=O)[C@@H](CC(=O)NO)CC2CCCC2)s1 [Example 65]
Inhibition of proliferation, Liver cancer BEL-7402 [1]: 81% | Inhibition of proliferation, Gastric cancer MGC-803 [2]: 72% | inhibition at 30 µM [3]: > 50% | Inhibition of proliferation, Lung cancer A549 [3]: 67% | HCT116 inhibition rate/% [4]: 83% | Anti-bacterial activity (MIC), strain MRSE 15-1 [5]: 0.015 mg/L | Anti-bacterial activity (MIC), strain MRSE 15-2 [5]: 0.125 mg/L | Anti-bacterial activity (MIC), strain MRSE 15-3 [5]: 0.125 mg/L | Anti-bacterial activity (MIC), strain MRSE 15-7 [5]: 0.125 mg/L | Anti-bacterial activity (MIC), strain EFM 15-1 ([6]; clinical isolate EFM 15-1): > 32 mg/L | Anti-bacterial activity (MIC), strain EFM 15-2 ([6]; clinical isolate EFM 15-2): > 32 mg/L | Anti-bacterial activity (MIC), strain EFM 15-3 ([6]; clinical isolate EFM 15-3): > 32 mg/L | Anti-bacterial activity (MIC), strain EFM 15-4 ([6]; clinical isolate EFM 15-4): 0.25 mg/L | Anti-bacterial activity (MIC), strain EFM 15-5 ([6]; clinical isolate EFM 15-5): 0.125 mg/L | Anti-bacterial activity (MIC), strain EFM 15-6 ([6]; clinical isolate EFM 15-6): 1 mg/L | Anti-bacterial activity (MIC), strain EFA 15-1 ([7]; clinical isolate EFA 15-1): 32 mg/L | Anti-bacterial activity (MIC), strain EFA 15-2 ([7]; clinical isolate EFA 15-2): 32 mg/L | Anti-bacterial activity (MIC), strain EFA 15-3 ([7]; clinical isolate EFA 15-3): 32 mg/L | Anti-bacterial activity (MIC), strain EFA 15-4 ([7]; clinical isolate EFA 15-4): 32 mg/L | Anti-bacterial activity (MIC), strain EFA 15-5 ([7]; clinical isolate EFA 15-5): 32 mg/L | Anti-bacterial activity (MIC), strain EFA 15-6 ([7]; clinical isolate EFA 15-6): > 32 mg/L | Anti-bacterial activity (MIC), strain EFA 15-9 ([7]; clinical isolate EFA 15-9): 4 mg/L | Anti-bacterial activity (MIC), strain MSSA 15-3 [8]: 0.125 mg/L | Anti-bacterial activity (MIC), strain MSSA 15-4 [8]: 0.015 mg/L | Anti-bacterial activity (MIC), strain MSSA 15-5 [8]: 0.015 mg/L | Anti-bacterial activity (MIC), strain MSSA 15-6 [8]: 16 mg/L | Anti-bacterial activity (MIC), strain SPN 16-2 ([9]; clinical isolate SPN 16-2): 0.125 mg/L | Anti-bacterial activity (MIC), strain SPN 16-4 ([9]; clinical isolate SPN 16-4): 0.06 mg/L | Anti-bacterial activity (MIC), strain ECO+ 15-1 [10]: 8 mg/L | Anti-bacterial activity (MIC), strain ECO+ 15-2 [10]: 8 mg/L | Anti-bacterial activity (MIC), strain ECO+ 15-3 [10]: 16 mg/L | Anti-bacterial activity (MIC), strain ECO+ 15-4 [10]: 16 mg/L | Anti-bacterial activity (MIC), strain ECO− 15-1 [10]: 8 mg/L | Anti-bacterial activity (MIC), strain ECO− 15-2 [10]: 16 mg/L | Anti-bacterial activity (MIC), strain ECO− 15-3 [10]: 16 mg/L | Anti-bacterial activity (MIC), strain ECO− 15-4 [10]: 8 mg/L | Anti-bacterial activity (MIC), strain MRSA 15-1 [11]: 0.06 mg/L | Anti-bacterial activity (MIC), strain MRSA 15-2 [11]: 0.125 mg/L | Anti-bacterial activity (MIC), strain MRSA 15-3 [11]: 0.06 mg/L | Anti-bacterial activity (MIC), strain MRSA 15-4 [11]: 0.125 mg/L | Anti-bacterial activity (MIC), strain BCA 14-1 ([12]; clinical isolate BCA 14-1): 0.5 mg/L | Anti-bacterial activity (MIC), strain BCA 14-4 ([12]; clinical isolate BCA 14-4): 0.5 mg/L | Anti-bacterial activity (MIC), strain BCA 14-5 ([12]; clinical isolate BCA 14-5): 0.125 mg/L | Anti-bacterial activity (MIC), strain BCA 14-6 ([12]; clinical isolate BCA 14-6): 0.125 mg/L | Anti-bacterial activity (MIC), strain BCA 14-7 ([12]; clinical isolate BCA 14-7): 0.5 mg/L | Anti-bacterial activity (MIC), strain BCA 14-8 ([12]; clinical isolate BCA 14-8): 0.5 mg/L | Anti-bacterial activity (MIC), strain BCA 14-10 ([12]; clinical isolate BCA 14-10): 0.125 mg/L | Anti-bacterial activity (MIC), strain MSSE 15-4 [13]: 0.125 mg/L | Anti-bacterial activity (MIC), strain MSSE 15-5 [13]: 0.06 mg/L | Anti-bacterial activity (MIC), strain MSSE 15-6 [13]: 0.015 mg/L

O=C(C[C@@H](CC1CCCC1)C(=O)N1CC2(CC2)C[C@H]1C(=O)Nc1cccnn1)NO [Example 66]
Inhibition of proliferation, Liver cancer BEL-7402 [1]: 74% | inhibition at 30 µM ([2]; Homo sapiens, MGC-803, 72 h): > 50% | Inhibition of proliferation, Gastric cancer MGC-803 [2]: 60% | inhibition at 30 µM [3]: > 50% | Inhibition of proliferation, Lung cancer A549 [3]: 56% | HCT116 inhibition rate/% [4]: 75% | Anti-bacterial activity (MIC), strain MRSE 15-1 [5]: 0.25 mg/L | Anti-bacterial activity (MIC), strain MRSE 15-2 [5]: 1 mg/L | Anti-bacterial activity (MIC), strain MRSE 15-3 [5]: 1 mg/L | Anti-bacterial activity (MIC), strain MRSE 15-7 [5]: 1 mg/L | Anti-bacterial activity (MIC) ([6]; strain EFM 15-1): 16 mg/L | Anti-bacterial activity (MIC) ([6]; strain EFM 15-2): 16 mg/L | Anti-bacterial activity (MIC) ([6]; strain EFM 15-3): 16 mg/L | Anti-bacterial activity (MIC) ([6]; strain EFM 15-4): 1 mg/L | Anti-bacterial activity (MIC) ([6]; strain EFM 15-5): 0.125 mg/L | Anti-bacterial activity (MIC) ([6]; strain EFM 15-6): 0.5 mg/L | Anti-bacterial activity (MIC) ([7]; strain EFA 15-1): 4 mg/L | Anti-bacterial activity (MIC) ([7]; strain EFA 15-2): 4 mg/L | Anti-bacterial activity (MIC) ([7]; strain EFA 15-3): 2 mg/L | Anti-bacterial activity (MIC) ([7]; strain EFA 15-4): 16 mg/L | Anti-bacterial activity (MIC) ([7]; strain EFA 15-5): 16 mg/L | Anti-bacterial activity (MIC) ([7]; strain EFA 15-6): 16 mg/L | Anti-bacterial activity (MIC) ([7]; strain EFA 15-9): 16 mg/L | Anti-bacterial activity (MIC), strain MSSA 15-3 [8]: 1 mg/L | Anti-bacterial activity (MIC), strain MSSA 15-4 [8]: 0.5 mg/L | Anti-bacterial activity (MIC), strain MSSA 15-5 [8]: 0.5 mg/L | Anti-bacterial activity (MIC), strain MSSA 15-6 [8]: 32 mg/L | Anti-bacterial activity (MIC) ([9]; strain SPN 16-2): 0.25 mg/L | Anti-bacterial activity (MIC) ([9]; strain SPN 16-4): 0.25 mg/L | Anti-bacterial activity (MIC), strain ECO+ 15-1 [10]: 16 mg/L | Anti-bacterial activity (MIC), strain ECO+ 15-2 [10]: 32 mg/L | Anti-bacterial activity (MIC), strain ECO+ 15-3 [10]: 16 mg/L | Anti-bacterial activity (MIC), strain ECO+ 15-4 [10]: 16 mg/L | Anti-bacterial activity (MIC), strain ECO− 15-1 [10]: 16 mg/L | Anti-bacterial activity (MIC), strain ECO− 15-2 [10]: 16 mg/L | Anti-bacterial activity (MIC), strain ECO− 15-3 [10]: 32 mg/L | Anti-bacterial activity (MIC), strain ECO− 15-4 [10]: 8 mg/L | Anti-bacterial activity (MIC), strain MRSA 15-1 [11]: 0.5 mg/L | Anti-bacterial activity (MIC), strain MRSA 15-2 [11]: 2 mg/L | Anti-bacterial activity (MIC), strain MRSA 15-3 [11]: 0.5 mg/L | Anti-bacterial activity (MIC), strain MRSA 15-4 [11]: 1 mg/L | Anti-bacterial activity (MIC) ([12]; strain BCA 14-1): 2 mg/L | Anti-bacterial activity (MIC) ([12]; strain BCA 14-4): 2 mg/L | Anti-bacterial activity (MIC) ([12]; strain BCA 14-5): 2 mg/L | Anti-bacterial activity (MIC) ([12]; strain BCA 14-6): 2 mg/L | Anti-bacterial activity (MIC) ([12]; strain BCA 14-7): 2 mg/L | Anti-bacterial activity (MIC) ([12]; strain BCA 14-8): 2 mg/L | Anti-bacterial activity (MIC) ([12]; strain BCA 14-10): 0.5 mg/L | Anti-bacterial activity (MIC), strain MSSE 15-3 ([13]; clinical isolate MSSE 15-3): 0.06 mg/L | Anti-bacterial activity (MIC), strain MSSE 15-4 [13]: 1 mg/L | Anti-bacterial activity (MIC), strain MSSE 15-5 [13]: 1 mg/L | Anti-bacterial activity (MIC), strain MSSE 15-6 [13]: 0.06 mg/L
